Key:
[1] = target: T1, ligand-binding domain of RORγ (RORγ-LBD) (Homo sapiens, UniProt P51449); assay: Inhibitory effect on RORγ-coactivator binding (LanthaScreen TR-FRET RORγ Coactivator Assay); conditions: at 33 μmol/L of the test compound; read-out: RORγ-coactivator binding inhibition rate (%)
T1 construct: purchased Invitrogen
T1 sequence (P51449 269-508 limits assumed): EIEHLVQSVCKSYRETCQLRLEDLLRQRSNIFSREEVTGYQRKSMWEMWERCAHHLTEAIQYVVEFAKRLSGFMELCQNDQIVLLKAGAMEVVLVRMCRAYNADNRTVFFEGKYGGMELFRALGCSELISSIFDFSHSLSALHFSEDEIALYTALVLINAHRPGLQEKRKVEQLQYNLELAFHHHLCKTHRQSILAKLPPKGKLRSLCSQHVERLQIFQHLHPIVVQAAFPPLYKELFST
Procedure: The inhibitory effect of the cyclic amine derivative (I) or a pharmacologically acceptable salt thereof on the binding between a ligand-binding domain of RORγ (hereinafter referred to as RORγ-LBD) and a coactivator was evaluated using Invitrogen's LanthaScreen™TR-FRET Retinoid-Related Orphan Receptor (ROR) gamma Coactivator Assay kit utilizing time-resolved fluorescence energy transfer (TR-FRET).
The test compound was dissolved in DMSO and diluted with TR-FRET Coregulator Buffer D (Invitrogen) containing 5 mmol/L of DTT to have a final DMSO concentration of 1% before use. To each well of a 384-well black plate (Corning Inc.), 4 nmol/L of GST-fused RORγ-LBD (Invitrogen) diluted with the buffer mentioned above and the test compound were added. A well without addition of the test compound and without addition of GST-fused RORγ-LBD (background) and a well without addition of the test compound and with addition of GST-fused RORγ-LBD (control) were prepared. Next, 150 nmol/L of fluorescein-labeled TRAP220/DRIP-2 (Invitrogen) diluted with the buffer mentioned above and 32 nmol/L of terbium-labeled anti-GST antibody (Invitrogen) were added to each well. After incubating the plate at room temperature for 16 to 24 hours, the fluorescence at 495 nm and 520 nm when excited at 320 nm was measured for each well and the ratio (fluorescence value at 520 nm/fluorescence value at 495 nm) was calculated.
The fold change with addition of the test compound (ratio with addition of the test compound/ratio of the background), the fold change of the control (ratio of the control/ratio of the background), and the fold change of the background (ratio of the background/ratio of the background) were calculated, and then the inhibition rate of binding between RORγ-LBD and a coactivator (hereinafter referred to as RORγ-coactivator binding inhibition rate) (%) was calculated from Formula 1: RORγ-coactivator binding inhibition rate(%)=(1−((Fold change with addition of the test compound)−(Fold change of the background))/((Fold change of the control)−(Fold change of the background)))×100 Formula 1

[2] = test system: IL-17 production in mouse splenocytes; assay: Suppressive effect on IL-17 production by IL-23 stimulation in mouse splenocytes; assay type: cell-based; conditions: Splenocyte, 72 h, at 5 μmol/L of the test compound, 10 ng/mL human IL-23, 3 days, read-out: IL-17 production inhibition rate (%)
Procedure: Using mouse splenocytes, the suppressive effect of the cyclic amine derivative (I) or a pharmacologically acceptable salt thereof on IL-17 production by IL-23 stimulation was evaluated by a partially modified method mentioned in The Journal of Biological Chemistry, 2003, Vol. 278, No. 3, p. 1910-1914.
A single cell suspension was prepared from the spleen of C57BL/6J mice (male, 7 to 23 weeks old) (Charles River Laboratories Japan, Inc.) and splenocytes were prepared using Histopaque-1083 (Sigma-Aldrich Japan). The culture medium was used by adding 10% FBS (Gibco), 50 U/mL of penicillin 50 μg/mL of streptomycin (Gibco), 50 μmol/L of 2-mercaptoethanol (Gibco), and 100 U/mL of human IL-2 (Cell Science & Technology Institute, Inc.) to RPMI1640 medium (Gibco). The test compound was dissolved in DMSO and then diluted with the culture medium to have a final concentration of DMSO of 0.1% before use. Splenocytes (3×10^5 cells/well) prepared in the culture medium were seeded in wells of a 96-well flat-bottom plate (Corning Incorporated), the test compound and 10 ng/mL of human IL-23 (R & D systems, Inc.) were added thereto, and the cells were cultured at 37° C. under 5% CO2 for 3 days. A well without addition of human IL-23 and without addition of the test compound and a well with addition of human IL-23 and without addition of the test compound were prepared. After completion of the culture, the culture supernatant was collected and the IL-17 production amount in the supernatant was determined by ELISA method (R & D systems, Inc.).
The IL-17 production inhibition rate (%) was calculated from Formula 2. IL-17 production inhibition rate(%)=(1−((IL-17 production amount with addition of IL-23 and with addition of the test compound)−(IL-17 production amount without addition of IL-23 and without addition of the test compound))/((IL-17 production amount with addition of IL-23 and without addition of the test compound)−(IL-17 production amount without addition of IL-23 and without addition of the test compound)))×100 Formula 2

Row | Compound | inhibition at 33 µM [1] | inhibition at 5 µM [2]
1 | NC(=O)N1CCCCC1C(=O)Nc1ccc(-c2ccccc2OC(F)(F)F)c(Cl)c1 (stereo not drawn) [Example 17, N^2-(2-chloro-2′-(trifluoromethoxy)-[1,1′-biphenyl]-4-yl)piperidine-1,2-dicarboxamide] | 93.8% | 91.8%
2 | COC(=O)CCCC(=O)N1CCCC[C@@H]1C(=O)Nc1ccc(-c2ccccc2OC(F)(F)F)c(Cl)c1 [Example 69, methyl (R)-5-(2-((2-chloro-2′-(trifluoromethoxy)-[1,1′-biphenyl]-4-yl)carbamoyl)piperidin-1-yl)-5-oxopentanoate] | 95.9% | 99.5%
3 | CS(=O)(=O)NCC(=O)N1CCCCC1C(=O)Nc1ccc(-c2ccccc2OC(F)(F)F)c(Cl)c1 (stereo not drawn) [Example 10, N-(2-chloro-2′-(trifluoromethoxy)-[1,1′-biphenyl]-4-yl)-1-(2-(methylsulfonamide)acetyl)piperidine-2-carboxamide] | 100% | 98.6%
4 | COCC(=O)N1CCCCC1C(=O)Nc1ccc(-c2ccccc2OC(F)(F)F)c(Cl)c1 (stereo not drawn) [Example 4, N-(2-chloro-2′-(trifluoromethoxy)-[1,1′-biphenyl]-4-yl)-1-(2-methoxyacetyl)piperidine-2-carboxamide] | 90.3% | 99.7%
5 | O=C(Nc1ccc(-c2ccccc2OC(F)(F)F)c(Cl)c1)[C@H]1CCCCN1C(=O)Cn1nccn1 [Example 66, (R)-1-(2-(2H-1,2,3-triazol-2-yl)acetyl)-N-(2-chloro-2′-(trifluoromethoxy)-[1,1′-biphenyl]-4-yl)piperidine-2-carboxamide] | 103% | 99.5%
6 | Cc1ccn(CCC(=O)N2CCCC[C@@H]2C(=O)Nc2ccc(-c3ccccc3OC(F)(F)F)c(Cl)c2)n1 [Example 60, (R)-1-(3-(3-methyl-1H-pyrazol-1-yl)propanoyl)-N-(2-chloro-2′-(trifluoromethoxy)-[1,1′-biphenyl]-4-yl)piperidine-2-carboxamide] | 93.6% | 99.7%
7 | CCC(=O)N1CCCCC1C(=O)Nc1ccc(-c2ccccc2OC(F)(F)F)c(Cl)c1 (stereo not drawn) [Example 3, N-(2-chloro-2′-(trifluoromethoxy)-[1,1′-biphenyl]-4-yl)-1-propionylpiperidine-2-carboxamide] | 88.2% | 98.6%
8 | CS(=O)(=O)N1CCC(F)(F)C[C@@H]1C(=O)Nc1ccc(-c2ccccc2OC(F)(F)F)c(Cl)c1 [Example 28, (R)-N-(2-chloro-2′-(trifluoromethoxy)-[1,1′-biphenyl]-4-yl)-4,4-difluoro-1-(methylsulfonyl)piperidine-2-carboxamide] | 101% | 98.6%
9 | CS(=O)(=O)CCC(=O)N1CCCCC1C(=O)Nc1ccc(-c2ccccc2OC(F)(F)F)c(Cl)c1 (stereo not drawn) [Example 40, N-(2-chloro-2′-(trifluoromethoxy)-[1,1′-biphenyl]-4-yl)-1-(3-(methylsulfonyl)propanoyl)piperidine-2-carboxamide] | 98.7% | 98.2%
10 | CS(=O)(=O)N1CCCC[C@@H]1C(=O)Nc1ccc(-c2ccccc2OC(F)(F)F)c(Cl)c1 [Example 21, (R)-N-(2-chloro-2′-(trifluoromethoxy)-[1,1′-biphenyl]-4-yl)-1-(methylsulfonyl)piperidine-2-carboxamide] | 98.2% | 99.8%
11 | CS(=O)(=O)N1CCCCC1C(=O)Nc1ccc(-c2ccccc2OC(F)(F)F)c(Cl)c1 (stereo not drawn) [Example 15, N-(2-chloro-2′-(trifluoromethoxy)-[1,1′-biphenyl]-4-yl)-1-(methylsulfonyl)piperidine-2-carboxamide] | 100% | 99.4%
12 | COC(=O)N1CCCCC1C(=O)Nc1ccc(-c2ccccc2OC(F)(F)F)c(Cl)c1 (stereo not drawn) [Example 19, methyl 2-((2-chloro-2′-(trifluoromethoxy)-[1,1′-biphenyl]-4-yl)carbamoyl)piperidine-1-carboxylate] | 93.4% | 99.8%

Reference: US10364222B2, “Cyclic amine derivative and medical use thereof” (Toray Industries, Inc., priority 2016, dated 2019)
